In paper PMC12037037 (Proceedings of the National Academy of Sciences of the …, 2025):

What was measured:
5-HT7 = 5-HT7 (Homo sapiens, UniProt P34969); assay: Functional assay at 5-HT7 (Fig. S4); format: cell-based
Source text: (§1) Figure S4. […] Radioligand binding (RLB) (top) and IP1 functional assays (bottom) for 5-HT1A (A), 5-HT5a (B), 5-HT6 (C), and 5-HT7 (D) receptors. Agonist or antagonist mode is indicated in the title of each graph. Data represent the mean ± SEM of 2 technical replicates.
(§2) 5-carboxamidotryptamine; ND = not determined for incomplete curves.
(§3) (1 picture or pasted object on this page, not shown here)

5-HT1A = 5-HT1A (Homo sapiens, UniProt P08908); assay: Functional assay at 5-HT1A (Fig. S4); format: cell-based
Sequence of 5-HT1A (P08908 whole entry): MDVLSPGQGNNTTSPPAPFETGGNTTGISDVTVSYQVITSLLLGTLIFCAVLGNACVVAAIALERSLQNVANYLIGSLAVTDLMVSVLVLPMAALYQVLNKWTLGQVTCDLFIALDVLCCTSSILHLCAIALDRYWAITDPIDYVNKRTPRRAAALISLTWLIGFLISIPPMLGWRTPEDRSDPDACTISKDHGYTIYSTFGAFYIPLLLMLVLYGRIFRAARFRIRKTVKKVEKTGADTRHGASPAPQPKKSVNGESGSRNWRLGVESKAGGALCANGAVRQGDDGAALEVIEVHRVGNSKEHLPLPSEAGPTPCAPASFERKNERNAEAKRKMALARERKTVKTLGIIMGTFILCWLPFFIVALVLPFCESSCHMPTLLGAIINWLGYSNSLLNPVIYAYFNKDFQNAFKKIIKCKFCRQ
Source text: as §1, §2, §3

C57BL/6J mice [1] = assay: 4-odor discrimination and reversal after unpredictable mild stress; format: in vivo
C57BL/6J mice [2] = assay: Sucrose preference test (SPT) after chronic CORT; format: in vivo; conditions: 1 mg/kg IP, two injections 48 h apart, CORT-sensitive mice; main effect of treatment P = 0.0364
Method: remained housed in groups of three for the remainder of the study. All rats were acclimated to the colony room for up to one week prior to dosing. During the period of acclimation, rats were examined and handled daily, and weighed to assure adequate health and suitability. The room temperature was maintained between 20 °C and 23 °C with a relative humidity of 30%–70%. Lab Rodent Diet 5001 (W.F. Fisher, Cat # 11015) and water were provided ad libitum. Animals were randomly assigned across treatment groups. All testing was performed during the light phase of the light/dark cycle. Behavioral testing was conducted according to established protocols approved by the IACUC committee and PGI Standard Operation Procedures (SOP). […] All animals were carefully monitored to ensure their safety in the swim test and any animal unable to maintain a posture with its nose above water was immediately removed from the water and not used further in the study. […] This test lasted for 5 min and was video recorded. A blinded experimenter manually scored the videos for swimming, climbing, and immobility behavior. Scoring of the forced swim test was performed by trained technicians using a time sampling technique in which the animal in the video recorded test was viewed every 5 seconds and the behavior observed was noted (e.g., immobile, swimming, or climbing). […]

Sequence of 5-HT7 (P34969 whole entry): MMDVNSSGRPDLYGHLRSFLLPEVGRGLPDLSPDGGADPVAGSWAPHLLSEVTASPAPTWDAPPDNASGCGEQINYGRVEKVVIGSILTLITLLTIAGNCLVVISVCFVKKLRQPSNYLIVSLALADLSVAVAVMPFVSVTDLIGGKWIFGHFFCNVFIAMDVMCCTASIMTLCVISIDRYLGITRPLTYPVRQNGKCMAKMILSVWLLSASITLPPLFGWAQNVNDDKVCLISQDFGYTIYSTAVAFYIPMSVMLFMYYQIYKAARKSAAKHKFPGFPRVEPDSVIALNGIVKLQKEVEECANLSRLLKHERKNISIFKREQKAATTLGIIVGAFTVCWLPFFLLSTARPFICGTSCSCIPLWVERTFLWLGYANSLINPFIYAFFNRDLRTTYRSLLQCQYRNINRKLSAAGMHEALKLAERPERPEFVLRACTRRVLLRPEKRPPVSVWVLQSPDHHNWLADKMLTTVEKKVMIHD

SMILES: CCN(CC)C(=O)[C@@H]1C=C2c3cccc4ccn(c34)C[C@H]2N(C)C1 [(+)-JRT]
- Functional activity at 5-HT7, agonist mode (5-HT7): agonist or partial agonist
- Functional activity at 5-HT1A (5-HT1A): agonist or partial agonist
- Discrimination (Figure 7B) (C57BL/6J mice [1]; (+)-JRT 1 mg/kg IP + Stress (UMS), VEH + Stress 20.20 ± 1.843, VEH – Stress 21.27 ± 2.516): 20.50 ± 2.212
- Reversal (Figure 7B) (C57BL/6J mice [1]; (+)-JRT 1 mg/kg IP + Stress (UMS), VEH + Stress 21.00 ± 2.385, VEH – Stress 13.64 ± 1.744): 12.40 ± 1.118
- Total Trials (Figure S17) (C57BL/6J mice [1]; Stress + (+)-JRT 1 mg/kg IP, Stress 41.20 ± 3.972, VEH 34.91 ± 2.661): 32.90 ± 2.479
- Effect on CORT-induced anhedonia (sucrose preference) (C57BL/6J mice [2]): rescued CORT-induced anhedonia
